In PubChem BioAssay AID248 (DTP/NCI, 2004):
“And” between values parts separate entries of the source, which are not always exact repeats. Equal entries are not always repeated. Inconclusive results and toxic doses are left out.

Test system: L1210 leukemia ip in BDF1 mice, survival T/C
Assay: NCI In Vivo Anticancer Drug Screen. Data for tumor model L1210 Leukemia (intraperitoneal) in B6D2F1 (BDF1) mice
Details: endpoint: mean survival time, higher = longer survival
Summary of the method: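 Mice bearing the transplanted tumor received compound or vehicle. Survival of the treated group was divided by that of the vehicle-treated control group to give the ratio.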

[1] = dose: 100.0 mg/kg/injection, schedule: Q04DX003 (ip), vehicle: saline with Tween-80
[2] = dose: 200.0 mg/kg/injection, schedule: Q04DX003 (ip), vehicle: saline with Tween-80
[3] = dose: 100.0 mg/kg/injection, schedule: Q01DX001 (ip), vehicle: saline

Q: With `N=C(N)/[N+]([O-])=N/O` as the compound, how does the T/C (dose: 8.0 mg/kg/injection, schedule: Q01DX001 (ip), vehicle: saline + alcohol) read?
A: 97 % of control

Q: And the T/C (dose: 12.0 mg/kg/injection, schedule: Q01DX001 (ip), vehicle: saline + alcohol)?
A: 100 % of control

Q: What about the T/C (dose: 18.0 mg/kg/injection, schedule: Q01DX001 (ip), vehicle: saline + alcohol) of the same compound?
A: 111 % of control

Q: What about the T/C (dose: 26.0 mg/kg/injection, schedule: Q01DX001 (ip), vehicle: saline + alcohol) of the same compound?
A: 98 % of control

Q: What about the T/C (dose: 40.0 mg/kg/injection, schedule: Q01DX001 (ip), vehicle: saline + alcohol) of the same compound?
A: 103 % of control

Q: And the T/C (dose: 60.0 mg/kg/injection, schedule: Q01DX001 (ip), vehicle: saline + alcohol)?
A: 95 % of control

Q: And the T/C (dose: 90.0 mg/kg/injection, schedule: Q01DX001 (ip), vehicle: saline + alcohol)?
A: 101 % of control

Q: And the T/C (dose: 135.0 mg/kg/injection, schedule: Q01DX001 (ip), vehicle: saline + alcohol)?
A: 100 % of control

Q: And the T/C (dose: 200.0 mg/kg/injection, schedule: Q01DX001 (ip), vehicle: saline + alcohol)?
A: 108 % of control

Q: With `CNc1ccc(C(=O)c2ccccc2C(=O)O)cc1[N+](=O)[O-]` as the compound, how does the T/C (dose: 100.0 mg/kg/injection, schedule: Q01DX009 (ip), vehicle: saline with Tween-80) read?
A: 92 % of control

Q: What about the T/C [1] of the same compound?
A: 97 % of control

Q: What about the T/C (dose: 200.0 mg/kg/injection, schedule: Q01DX009 (ip), vehicle: saline with Tween-80) of the same compound?
A: 95 % of control

Q: And the T/C [2]?
A: 89 % of control

Q: And the T/C (dose: 400.0 mg/kg/injection, schedule: Q01DX009 (ip), vehicle: saline with Tween-80)?
A: 93 % of control

Q: And the T/C (dose: 400.0 mg/kg/injection, schedule: Q04DX003 (ip), vehicle: saline with Tween-80)?
A: 94 % of control

Q: How did the T/C (dose: 100.0 mg/kg/injection, schedule: Q01DX009 (ip), vehicle: saline) turn out when `COC1=C(CNc2ncnc3nc[nH]c23)CC=CC1` was run?
A: 95 % of control

Q: What about the T/C (dose: 200.0 mg/kg/injection, schedule: Q01DX009 (ip), vehicle: saline) of the same compound?
A: 97 % of control

Q: What about the T/C (dose: 400.0 mg/kg/injection, schedule: Q01DX009 (ip), vehicle: saline) of the same compound?
A: 100 % of control

Q: Which results are given for `O=C(Nc1cccc(C(F)(F)F)c1)N(Cc1ccccc1)Cc1ccccc1`?
A: T/C (dose: 100.0 mg/kg/injection, schedule: Q01DX009 (ip), vehicle: gum acacia): 108 % of control; T/C (dose: 200.0 mg/kg/injection, schedule: Q01DX009 (ip), vehicle: gum acacia): 106 % of control; T/C (dose: 400.0 mg/kg/injection, schedule: Q01DX009 (ip), vehicle: gum acacia): 94 % of control

Q: Which results are given for `CCOC(=O)C(C#N)=C1CCN(Cc2ccccc2)CC1`?
A: T/C [3]: 96 % of control; T/C (dose: 200.0 mg/kg/injection, schedule: Q01DX001 (ip), vehicle: saline): 99 % of control; T/C (dose: 400.0 mg/kg/injection, schedule: Q01DX001 (ip), vehicle: saline): 105 % of control

Q: `CCCCCCCc1nc2nn[nH]c(=O)c2[nH]1` was tested. Which T/C (dose: 100.0 mg/kg/injection, schedule: Q01DX001 (ip), vehicle: saline with Tween-80) did it give?
A: 94 % of control

Q: And the T/C (dose: 200.0 mg/kg/injection, schedule: Q01DX001 (ip), vehicle: saline with Tween-80)?
A: 100 % of control

Q: And the T/C (dose: 400.0 mg/kg/injection, schedule: Q01DX001 (ip), vehicle: saline with Tween-80)?
A: 90 % of control

Q: How did the T/C (dose: 50.0 mg/kg/injection, schedule: Q01DX001 (ip), vehicle: carboxymethylcellulose (CMC)) turn out when `CC1=C(c2ccccc2)C(c2ccccc2)=CC1=O` was run?
A: 95 % of control

Q: What about the T/C (dose: 100.0 mg/kg/injection, schedule: Q01DX001 (ip), vehicle: carboxymethylcellulose (CMC)) of the same compound?
A: 92 % of control

Q: And the T/C (dose: 200.0 mg/kg/injection, schedule: Q01DX001 (ip), vehicle: carboxymethylcellulose (CMC))?
A: 92 % of control

Q: What about the T/C (dose: 400.0 mg/kg/injection, schedule: Q01DX001 (ip), vehicle: carboxymethylcellulose (CMC)) of the same compound?
A: 95 % of control

Q: Which T/C (dose: 12.5 mg/kg/injection, schedule: Q04DX003 (ip), vehicle: saline with Tween-80) does the source give for `CCC1(CC)N=C2OCCN2C1=O` here?
A: 97 % of control

Q: What about the T/C (dose: 25.0 mg/kg/injection, schedule: Q04DX003 (ip), vehicle: saline with Tween-80) of the same compound?
A: 95 % of control

Q: And the T/C (dose: 50.0 mg/kg/injection, schedule: Q04DX003 (ip), vehicle: saline with Tween-80)?
A: 97 % of control

Q: And the T/C [1]?
A: 94 % of control

Q: And the T/C [2]?
A: 91 % of control and 92 % of control

Q: What about the T/C (dose: 300.0 mg/kg/injection, schedule: Q04DX003 (ip), vehicle: saline with Tween-80) of the same compound?
A: 106 % of control

Q: `O=C(CCCCC(=O)c1ccc(O)cc1O)c1ccc(O)cc1O` was tested. Which T/C (dose: 100.0 mg/kg/injection, schedule: Q01DX001 (ip), vehicle: other) did it give?
A: 97 % of control

Q: And the T/C (dose: 100.0 mg/kg/injection, schedule: Q04DX003 (ip), vehicle: other)?
A: 103 % of control

Q: And the T/C (dose: 200.0 mg/kg/injection, schedule: Q01DX001 (ip), vehicle: other)?
A: 95 % of control

Q: And the T/C (dose: 200.0 mg/kg/injection, schedule: Q04DX003 (ip), vehicle: other)?
A: 100 % of control

Q: What about the T/C (dose: 400.0 mg/kg/injection, schedule: Q01DX001 (ip), vehicle: other) of the same compound?
A: 97 % of control

Q: What about the T/C (dose: 400.0 mg/kg/injection, schedule: Q04DX003 (ip), vehicle: other) of the same compound?
A: 106 % of control

Q: Which results are given for `CN(CCOS(C)(=O)=O)CCOS(C)(=O)=O`?
A: T/C (dose: 0.1 mg/kg/injection, schedule: Q01DX009 (ip), vehicle: saline): 123 % of control; T/C (dose: 0.17 mg/kg/injection, schedule: Q01DX009 (ip), vehicle: saline): 118 % of control; T/C (dose: 0.2 mg/kg/injection, schedule: Q01DX009 (ip), vehicle: saline): 161 % of control; T/C (dose: 0.26 mg/kg/injection, schedule: Q01DX009 (ip), vehicle: saline): 122 % of control; T/C (dose: 0.28 mg/kg/injection, schedule: Q01DX001 (ip), vehicle: saline): 110 % of control; T/C (dose: 0.4 mg/kg/injection, schedule: Q01DX001 (ip), vehicle: saline): 115 % of control; T/C (dose: 0.4 mg/kg/injection, schedule: Q01DX009 (ip), vehicle: saline): 183 % of control; T/C (dose: 0.44 mg/kg/injection, schedule: Q01DX001 (ip), vehicle: saline): 121 % of control; T/C (dose: 0.66 mg/kg/injection, schedule: Q01DX009 (ip), vehicle: saline): 101 % of control; T/C (dose: 0.8 mg/kg/injection, schedule: Q01DX009 (ip), vehicle: saline): 163 % of control; T/C (dose: 1.0 mg/kg/injection, schedule: Q01DX009 (ip), vehicle: saline): 109 % of control; T/C (dose: 1.5 mg/kg/injection, schedule: Q01DX009 (ip), vehicle: saline): 88 % of control; T/C (dose: 1.6 mg/kg/injection, schedule: Q01DX009 (ip), vehicle: saline): 92 % of control; T/C (dose: 2.25 mg/kg/injection, schedule: Q01DX001 (ip), vehicle: saline): 156 % of control; T/C (dose: 4.5 mg/kg/injection, schedule: Q01DX001 (ip), vehicle: saline): 104 % of control; T/C (dose: 38.0 micrograms/kg/injection, schedule: Q01DX009 (ip), vehicle: saline): 113 % of control; T/C (dose: 58.0 micrograms/kg/injection, schedule: Q01DX009 (ip), vehicle: saline): 123 % of control; T/C (dose: 88.0 micrograms/kg/injection, schedule: Q01DX009 (ip), vehicle: saline): 115 % of control; T/C (dose: 132.0 micrograms/kg/injection, schedule: Q01DX009 (ip), vehicle: saline): 151 % of control; T/C (dose: 200.0 micrograms/kg/injection, schedule: Q01DX009 (ip), vehicle: saline): 90 % of control

Q: Which T/C (dose: 45.0 mg/kg/injection, schedule: Q01DX001 (ip), vehicle: saline) does the source give for `CCCCCCCCc1nc2c(c(=O)n(C)c(=O)n2C)n1C` here?
A: 95 % of control and 101 % of control

Q: And the T/C (dose: 67.0 mg/kg/injection, schedule: Q01DX001 (ip), vehicle: saline)?
A: 101 % of control and 104 % of control

Q: What about the T/C [3] of the same compound?
A: 97 % of control and 104 % of control

Q: And the T/C (dose: 150.0 mg/kg/injection, schedule: Q01DX001 (ip), vehicle: saline)?
A: 95 % of control and 101 % of control

Q: What does the source list for `COc1ccc(COC2C(CO)OC(n3cnc4c(N)ncnc43)C2O)cc1` (centres undefined)?
A: T/C (dose: 100.0 mg/kg/injection, schedule: Q01DX005 (ip), vehicle: saline): 97 % of control; T/C (dose: 200.0 mg/kg/injection, schedule: Q01DX005 (ip), vehicle: saline): 100 % of control
